This passage reports Activity results from ChEMBL document CHEMBL2073765, “Disrupted bile acid homeostasis reveals an unexpected interaction among nuclear hormone receptors, transporters, and cytochrome P450” (J Biol Chem, 2001).

Each structure is given as a SMILES string.

The data set concerns the target Bile salt export pump (Homo sapiens, UniProt O95342). The experiment in a line: TP_TRANSPORTER: Western in vitro, primary human hepatocyte. Type of data set: functional, cell-based. Conditions: hepatocytes.

Sequence of Bile salt export pump (O95342 whole entry): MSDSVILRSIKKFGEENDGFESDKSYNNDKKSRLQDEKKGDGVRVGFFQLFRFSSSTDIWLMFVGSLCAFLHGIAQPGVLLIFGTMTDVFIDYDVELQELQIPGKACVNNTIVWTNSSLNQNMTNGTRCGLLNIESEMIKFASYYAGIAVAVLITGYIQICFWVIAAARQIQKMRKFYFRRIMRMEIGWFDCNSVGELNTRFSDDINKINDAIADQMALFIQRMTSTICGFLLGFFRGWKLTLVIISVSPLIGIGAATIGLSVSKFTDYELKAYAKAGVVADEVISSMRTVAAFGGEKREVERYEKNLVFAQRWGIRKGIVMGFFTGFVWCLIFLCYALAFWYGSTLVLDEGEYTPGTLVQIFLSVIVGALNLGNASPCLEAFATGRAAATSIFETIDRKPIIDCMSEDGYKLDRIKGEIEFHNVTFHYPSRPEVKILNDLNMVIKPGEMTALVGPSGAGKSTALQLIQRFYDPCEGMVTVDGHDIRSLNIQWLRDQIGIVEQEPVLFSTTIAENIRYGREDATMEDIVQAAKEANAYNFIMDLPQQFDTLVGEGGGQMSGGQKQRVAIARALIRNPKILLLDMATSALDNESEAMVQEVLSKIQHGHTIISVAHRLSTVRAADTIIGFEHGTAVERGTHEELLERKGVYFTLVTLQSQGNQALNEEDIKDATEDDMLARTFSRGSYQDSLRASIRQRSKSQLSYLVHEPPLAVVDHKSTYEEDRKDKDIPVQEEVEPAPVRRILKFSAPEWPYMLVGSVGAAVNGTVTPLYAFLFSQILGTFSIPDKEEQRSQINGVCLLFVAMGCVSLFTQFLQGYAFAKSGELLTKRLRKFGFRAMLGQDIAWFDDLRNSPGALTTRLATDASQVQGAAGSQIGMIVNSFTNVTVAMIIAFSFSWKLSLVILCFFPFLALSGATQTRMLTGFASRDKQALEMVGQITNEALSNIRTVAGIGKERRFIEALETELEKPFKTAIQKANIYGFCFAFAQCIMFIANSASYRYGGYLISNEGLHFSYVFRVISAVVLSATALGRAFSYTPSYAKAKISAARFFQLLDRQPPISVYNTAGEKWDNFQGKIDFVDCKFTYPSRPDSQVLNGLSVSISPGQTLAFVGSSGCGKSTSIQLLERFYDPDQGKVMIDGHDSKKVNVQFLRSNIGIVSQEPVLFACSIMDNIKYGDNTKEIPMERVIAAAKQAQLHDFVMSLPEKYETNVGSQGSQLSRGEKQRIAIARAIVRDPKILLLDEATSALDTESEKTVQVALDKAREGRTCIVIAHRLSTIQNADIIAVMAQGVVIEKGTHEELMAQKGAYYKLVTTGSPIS

Consider `C[C@H](CCC(=O)O)[C@H]1CC[C@H]2[C@@H]3[C@H](O)C[C@@H]4C[C@H](O)CC[C@]4(C)[C@H]3CC[C@]12C` [CHENODIOL], for which the Activity entry was “inducer [+]”. Take `C[C@H](CCC(=O)O)[C@H]1CC[C@H]2[C@@H]3CC[C@@H]4C[C@H](O)CC[C@]4(C)[C@H]3C[C@H](O)[C@]12C` [DEOXYCHOLIC ACID]: the Activity entry was “inducer [+]”.
